One may read the pIC50 as −log10 of the IC50, conventionally taken in molar units. The pEC50 is the EC50 on a negative log10 scale, so that one unit is a factor of ten.

Molecules are shown by their SMILES. pEC50, pIC50: −log10 of the molar value. Structures can show the parent of a compound that is named as a salt.

This is an account of results in patent US20260327233A1, “Heteroaryl Compounds as Ligand Directed Degraders of IRAK4” (Celgene Corporation, priority 2023, published 2026).

Assay [1] concerns the target T1, IRAK4 (Homo sapiens, UniProt Q9NWZ3).
T1 sequence (Q9NWZ3 1-460): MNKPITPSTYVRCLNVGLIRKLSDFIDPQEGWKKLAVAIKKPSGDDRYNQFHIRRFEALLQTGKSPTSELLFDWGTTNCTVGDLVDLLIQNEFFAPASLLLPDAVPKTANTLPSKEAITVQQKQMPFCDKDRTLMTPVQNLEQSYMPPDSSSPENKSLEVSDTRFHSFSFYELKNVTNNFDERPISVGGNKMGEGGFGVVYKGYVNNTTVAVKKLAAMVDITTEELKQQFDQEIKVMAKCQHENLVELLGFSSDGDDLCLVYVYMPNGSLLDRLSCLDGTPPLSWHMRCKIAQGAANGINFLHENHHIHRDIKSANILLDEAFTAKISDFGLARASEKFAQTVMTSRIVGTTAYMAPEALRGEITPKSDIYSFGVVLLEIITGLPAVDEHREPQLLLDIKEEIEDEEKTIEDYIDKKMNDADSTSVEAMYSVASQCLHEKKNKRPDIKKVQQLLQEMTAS
The assay is described as follows: IRAK4 PhosphoSens Biochemical Assay (BIOCHEM). The settings on record: IRAK4 1 nM; ATP and Sox conjugated peptide substrate AQT0326; pH 7.5; room temperature; 240 minutes. How it is done:
The PhosphoSens® biochemical assay was performed as described by the vendor (AssayQuant Technologies Inc. Marlborough, MA). A 1.25× stock solution of IRAK4 (PV4002, ThermoFisher Scientific, Waltham, MA) and a 5× stock solution of ATP and Sox conjugated peptide substrate, AQT0326 (CSKS-AQT0326B, AssayQuant Technologies), were prepared in 1× kinase reaction buffer consisting of 50 mM HEPES, pH 7.5, 0.01% Brij-35, 0.5 mM EGTA, 20 mM MgCl2 and 1 mM DTT. 10 μL of the ATP and substrate solution mix, for a final concentration of 200 µM ATP and […] peptide substrate, was added to a Corning 3574 384-well, white, non-binding surface microtiter plate containing 0.5 μL of serially diluted test compounds prepared in DMSO. The reactions were started with the addition of 40 μL of the enzyme solution, for a final IRAK4 concentration of 1 nM, and monitored every 71 seconds for 240 minutes at λEX 360/λEM 485 in a BioTek Synergy H4 plate reader (Agilent Technologies, Santa Clara, CA) at room temperature. The initial linear portions of the progress curves were fit according to a linear equation to yield the slopes and converted to % inhibition based on a value of 100% activity for the no inhibitor treated control. IC50 values of each compound were obtained by fitting the % inhibition-compound concentration curves using Dotmatics software (Dotmatics, Bishops Stortford, Hertfordshire, England),

The target in assay [2] is T1, IRAK4. In words: ALE THP1 HTRF (IRAK4 HTRF in THP1 cell lysate, Cisbio HTRF kit). In kind it is cell-based. Also noted: THP1 Homogeneous Time Resolved Fluorescence (ALE THP1 HTRF) Procedure; endogenous in cells; host or cells: THP1. As to conditions: anti-IRAK4 d2 / anti-IRAK4 k antibodies. On the procedure: Cell culture media was prepared in a tissue culture hood in a sterile environment by adding 10% FBS and 1% Penicillin Streptomycin to 500 mL no phenol red RPMI 1640 media. The media was filtered through a Nalgene Bottle Top Filter and stored at 4° C.
For Homogenous Time Resolved Fluorescence (HTRF) assays, a Cisbio HTRF kit was used, which included: Lysis Buffer #1 4×, Blocking Reagent #3 100×, 20× Antibody 1 (Anti-IRAK4 d2), 20× Antibody 2 (Anti-IRAK4 k), and Detection Buffer.
4× Lysis Buffer was stored at 4° C. For use as 1× Lysis buffer, the 4× solution was diluted with de-ionized water (distilled water, Gibco Cat. #15230279) and 100× Blocking Reagent in a 1:3:0.04 volume ratio.
20× Antibody Solution aliquots were stored at −80° C. and the Detection Buffer was stored at 4° C. For use as a 1× Antibody Solution, the 20× Antibody Solution aliquot was diluted with Detection Buffer in a 1:19 volume ratio.
Cells were lysed at room temperature for 45 min with shaking. A BCA protein assay was performed and normalization was conducted to the desired total protein concentration with 1× lysis buffer. Next, 1× Antibody Solutions were prepared by adding 380 μL Detection Buffer to 20 μL 20× Antibody Solution aliquots and mixing well. 1× Antibody Solutions were combined 1:1 and briefly vortexed. For control wells, 20 μL 1× anti IRAK4-k Antibody Solution was saved. The 384-well plate (ProxiPlate-384 Plus, Perkin Elmer Cat. #6008289) was loaded by adding 4 μL of the mixed Antibody Solution to empty wells using a single channel repeater. Using a multi-channel repeater, 16 μL lysate was added per well, and any bubbles that were formed were popped with 20 μL pipette tips and Kimwipe edges. In column 10, triplicates of each control were prepared. In wells A10, B10, and C10, buffer control was prepared by adding 16 μL Lysis Buffer and 4 μL Detection Buffer. In wells D10, E10, and F10, cryptate control was prepared by adding 16 μL Lysis Buffer, 2 μL Detection Buffer, and 2 μL 1× anti-IRAK4-k Antibody Solution. In wells G10, H10, and 110, a negative control was prepared by adding 16 μL Lysis Buffer and 4 μL mixed Antibody Solution. The plate was sealed with a clear seal and covered with an aluminum lid. The plate was spun down at 800 g for 5 min and incubated in the dark at room temperature overnight. The next day, the plate was spun down at 800 g for 5 min. The samples were analyzed by a plate reader (Envision, PerkinElmer) using the Desnor 384 HTRF program.

As for `CN(C[C@H]1CC[C@H](n2cc(NC(=O)c3cnn4ccc(N5C[C@H](N)C[C@@H](F)C5)nc34)c(C(F)F)n2)CC1)C1CCN(c2ccc3c(c2)CN(C2CCC(=O)NC2=O)C3=O)CC1` (stereo partly drawn) [Compound P-32, N-[3-(Difluoromethyl)-1-[4-[[[1-[2-(2,6-dioxo-3-piperidyl)-1-oxo-isoindolin-5-yl]-4-piperidyl]-methyl-amino]methyl]cyclohexyl]pyrazol-4-yl]-5-[(3r,5r)-3-amino-5-fluoro-1-piperidyl]pyrazolo[1,5-a]pyrimidine-3-carboxamide hydrochloride], the pIC50 on IRAK4 [1] was above 9.30. Also, on IRAK4 [2], the pEC50 was 8.22 and the “ALE THP1 HTRF YMIN” value was 12%.

Consider `C[C@@H]1CN(c2ccn3ncc(C(=O)Nc4cn([C@H]5CC[C@H](C(=O)NC6CCN(c7ccc8c(c7)CN(C7CCC(=O)NC7=O)C8=O)CC6)CC5)nc4C(F)F)c3n2)C[C@H](C)O1` (stereo partly drawn) [Compound P-33], for which the pIC50 at IRAK4 [1] was 8.03. Further, at IRAK4 [2], the negative-log EC50 (pEC50) was 7.62 and the “ALE THP1 HTRF YMIN” value was determined as 68%.

Take `CN(c1ccc2c(c1)CN(C1CCC(=O)NC1=O)C2=O)C1CCN(C[C@H]2CC[C@H](n3cc(NC(=O)c4cnn5ccc(N6C[C@H](N)C[C@@H](F)C6)nc45)c(C(F)F)n3)CC2)CC1` (stereo partly drawn) [Compound P-34]: on IRAK4 [1], the negative-log IC50 (pIC50) is above 9.30. Moreover, at IRAK4 [2], the pEC50 is 8.22 and the “ALE THP1 HTRF YMIN” value is 9%.

With `CN(C[C@H]1CC[C@H](n2cc(NC(=O)c3cnn4ccc(N5CCOCC5)nc34)c(C(F)F)n2)CC1)[C@H]1CC[C@H](Nc2cccc3c2C(=O)N(C2CCC(=O)NC2=O)C3=O)CC1` (stereo partly drawn) [Compound P-36], at IRAK4 [1], the pIC50 is 9.05. On IRAK4 [2], the pEC50 is 8.05 and the “ALE THP1 HTRF YMIN” value is 29%.

Turning to `CN(C[C@H]1CC[C@H](n2cc(NC(=O)c3cnn4ccc(N5C[C@H](N)C[C@@H](F)C5)nc34)c(C(F)F)n2)CC1)[C@H]1CC[C@H](Nc2cccc3c2C(=O)N(C2CCC(=O)NC2=O)C3=O)CC1` (stereo partly drawn) [Compound P-37], the pIC50 on IRAK4 [1] was above 9.30. Also, on IRAK4 [2], the pEC50 is 7.70 and the “ALE THP1 HTRF YMIN” value is on record as 12%.

For `N[C@@H]1C[C@@H](F)CN(c2ccn3ncc(C(=O)Nc4cn(C5CCN(CCN6CCN(c7ccc8c(c7)CN(C7CCC(=O)NC7=O)C8=O)CC6)CC5)nc4C(F)F)c3n2)C1` (stereo partly drawn) [Compound P-38, N-[3-(difluoromethyl)-1-[1-[2-[4-[2-(2,6-dioxo-3-piperidyl)-1-oxo-isoindolin-5-yl]piperazin-1-yl]ethyl]-4-piperidyl]pyrazol-4-yl]-5-[(3R,5R)-3-amino-5-fluoro-1-piperidyl]pyrazolo[1,5-a]pyrimidine-3-carboxamide], the pIC50 at IRAK4 [1] was above 9.30. Moreover, at IRAK4 [2], the negative logarithm of the EC50 (pEC50) is 8.22 and the “ALE THP1 HTRF YMIN” value is 10%.
